Our source for the EC50 and IC50 values is ChEMBL document CHEMBL1201862, “PubChem BioAssay data set” (2004).

Activity calls are given as the source filed them. Where only a bound is given, the exact number is not on record here.

Format in all cases: functional
Experiment [1] addresses T1, Type-1 angiotensin II receptor (Homo sapiens, UniProt P30556).
T1 sequence (P30556 whole entry): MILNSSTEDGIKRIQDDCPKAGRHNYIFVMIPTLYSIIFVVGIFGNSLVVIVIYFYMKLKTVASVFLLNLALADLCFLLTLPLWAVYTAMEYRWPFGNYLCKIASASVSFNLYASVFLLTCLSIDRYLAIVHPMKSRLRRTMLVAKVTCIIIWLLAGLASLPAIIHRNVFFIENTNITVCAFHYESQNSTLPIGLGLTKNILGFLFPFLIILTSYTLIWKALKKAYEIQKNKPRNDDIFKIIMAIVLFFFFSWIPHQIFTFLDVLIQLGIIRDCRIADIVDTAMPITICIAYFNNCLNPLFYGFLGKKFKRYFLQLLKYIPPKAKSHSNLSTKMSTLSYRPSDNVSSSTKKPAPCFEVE
Description: agonist activity at AGTR1 – cell-based, uHTS hits, selectivity assay for APJ receptor agonist project, dose response (AID 488865).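 Further: beta-arrestin recruitment to AT1 measured by enzyme fragment complementation luminescence.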

The target of the next experiment is T2, Hexokinase HKDC1 (Homo sapiens, UniProt Q2TB90).
T2 sequence (Q2TB90 whole entry): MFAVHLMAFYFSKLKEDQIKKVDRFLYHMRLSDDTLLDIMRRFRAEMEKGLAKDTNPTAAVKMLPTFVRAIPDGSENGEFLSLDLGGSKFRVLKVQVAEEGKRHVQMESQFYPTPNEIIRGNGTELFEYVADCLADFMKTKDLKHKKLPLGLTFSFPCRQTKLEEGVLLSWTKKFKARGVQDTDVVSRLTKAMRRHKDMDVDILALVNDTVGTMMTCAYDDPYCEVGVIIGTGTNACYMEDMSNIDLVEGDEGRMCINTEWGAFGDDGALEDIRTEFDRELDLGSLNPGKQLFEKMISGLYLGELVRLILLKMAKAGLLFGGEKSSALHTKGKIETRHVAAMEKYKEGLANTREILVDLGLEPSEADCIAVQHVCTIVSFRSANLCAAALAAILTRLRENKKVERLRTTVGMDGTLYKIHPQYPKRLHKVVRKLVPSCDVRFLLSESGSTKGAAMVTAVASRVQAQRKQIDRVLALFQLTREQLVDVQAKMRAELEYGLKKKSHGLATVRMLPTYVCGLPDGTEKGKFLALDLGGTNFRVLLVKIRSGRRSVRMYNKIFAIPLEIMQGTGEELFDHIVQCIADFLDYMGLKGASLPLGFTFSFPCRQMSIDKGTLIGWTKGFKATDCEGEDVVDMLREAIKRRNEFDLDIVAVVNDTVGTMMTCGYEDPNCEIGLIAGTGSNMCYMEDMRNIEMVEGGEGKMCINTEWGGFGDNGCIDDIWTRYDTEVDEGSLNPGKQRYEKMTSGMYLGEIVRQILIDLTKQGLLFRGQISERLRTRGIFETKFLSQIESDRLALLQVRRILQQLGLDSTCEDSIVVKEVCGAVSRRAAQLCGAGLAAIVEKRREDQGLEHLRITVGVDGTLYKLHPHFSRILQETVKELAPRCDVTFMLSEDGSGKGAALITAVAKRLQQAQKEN
Description: activation of HKDC1 glucose phosphorylation – biochemical, W721R variant, dose response (AID 504730).

A further experiment concerns the target Hexokinase-1 (Homo sapiens, UniProt P19367). The experiment is described as follows: HK1 enzyme activation by HKDC1 hits – biochemical, selectivity assay for HKDC1 activator project, dose response (AID 504762).
The next experiment concerns the target T3, Bcl-2-related protein A1 (Mus musculus, UniProt Q07440).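 Further: confirmatory dose–response counterscreen on Bfl-1, used to check hits from a UBC13 polyubiquitin inhibitor campaign.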
T3 sequence (Q07440 whole entry): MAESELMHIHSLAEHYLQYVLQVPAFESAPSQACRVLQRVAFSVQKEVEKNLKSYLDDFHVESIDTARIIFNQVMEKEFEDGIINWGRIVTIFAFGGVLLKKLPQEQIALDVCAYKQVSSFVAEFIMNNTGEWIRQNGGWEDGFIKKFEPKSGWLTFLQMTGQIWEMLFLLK

Experiment [2] addresses T4, Ubiquitin-conjugating enzyme E2 N (Homo sapiens, UniProt P61088).
T4 sequence (P61088 whole entry): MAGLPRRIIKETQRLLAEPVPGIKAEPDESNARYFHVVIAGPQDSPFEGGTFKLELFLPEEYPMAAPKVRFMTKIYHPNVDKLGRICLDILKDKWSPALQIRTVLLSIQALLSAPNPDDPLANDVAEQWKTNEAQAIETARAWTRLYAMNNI

The target in experiment [3] is T4, Ubiquitin-conjugating enzyme E2 N. This is another data set of the same source.
Experiment [4] in a line: Luminescence Cell-Based Dose Response HTS to Identify Inhibitors of Luciferase Translation or Activity in H4-C Neuroglioblastoma Cells. [Related pubchem assays: 1813 (Primary HTS), 1827 (Project Summary)].
The nature of experiment [5]: Luminescence Cell-Based Dose Response HTS to Identify Activators of Luciferase Translation or Activity in H4-C Neuroglioblastoma Cells. [Related pubchem assays: 1829 (Project Summary), 1814 (Primary HTS)].
Experiment [6] can be described thus: Luminescence Cell-Based Dose Retest to Confirm Activators of 5'UTR Stem-Loop Driven Alpha-Synuclein mRNA Translation in H4 Neuroglioblastoma Cells. [Related pubchem assays (depositor defined):AID1813, AID1829].
Experiment [7] can be described thus: Luminescence Cell-Based Dose Response HTS to Identify Activators of 5'UTR Stem-Loop Driven Prion Protein mRNA Translation in H4-C Neuroglioblastoma Cells. [Related pubchem assays: 1829 (Project Summary), 1814 (Primary HTS)].
Experiment [8] can be described thus: Luminescence Cell-Based Dose HTS Response to Identify Inhibitors of 5'UTR Stem-Loop Driven Prion Protein mRNA Translation in H4-C Neuroglioblastoma Cells. [Related pubchem assays (depositor defined):AID1814, AID1827].
Experiment [9] is described as follows: Luminescence Cell-Based Dose Confirmation HTS to Identify Inhibitors of 5'UTR Stem-Loop Driven Alpha-Synuclein mRNA Translation in H4 Neuroglioblastoma Cells. [Related pubchem assays: 1827 (Project Summary), 1813 (Primary HTS)].

Chain of Hexokinase-1 (P19367 whole entry): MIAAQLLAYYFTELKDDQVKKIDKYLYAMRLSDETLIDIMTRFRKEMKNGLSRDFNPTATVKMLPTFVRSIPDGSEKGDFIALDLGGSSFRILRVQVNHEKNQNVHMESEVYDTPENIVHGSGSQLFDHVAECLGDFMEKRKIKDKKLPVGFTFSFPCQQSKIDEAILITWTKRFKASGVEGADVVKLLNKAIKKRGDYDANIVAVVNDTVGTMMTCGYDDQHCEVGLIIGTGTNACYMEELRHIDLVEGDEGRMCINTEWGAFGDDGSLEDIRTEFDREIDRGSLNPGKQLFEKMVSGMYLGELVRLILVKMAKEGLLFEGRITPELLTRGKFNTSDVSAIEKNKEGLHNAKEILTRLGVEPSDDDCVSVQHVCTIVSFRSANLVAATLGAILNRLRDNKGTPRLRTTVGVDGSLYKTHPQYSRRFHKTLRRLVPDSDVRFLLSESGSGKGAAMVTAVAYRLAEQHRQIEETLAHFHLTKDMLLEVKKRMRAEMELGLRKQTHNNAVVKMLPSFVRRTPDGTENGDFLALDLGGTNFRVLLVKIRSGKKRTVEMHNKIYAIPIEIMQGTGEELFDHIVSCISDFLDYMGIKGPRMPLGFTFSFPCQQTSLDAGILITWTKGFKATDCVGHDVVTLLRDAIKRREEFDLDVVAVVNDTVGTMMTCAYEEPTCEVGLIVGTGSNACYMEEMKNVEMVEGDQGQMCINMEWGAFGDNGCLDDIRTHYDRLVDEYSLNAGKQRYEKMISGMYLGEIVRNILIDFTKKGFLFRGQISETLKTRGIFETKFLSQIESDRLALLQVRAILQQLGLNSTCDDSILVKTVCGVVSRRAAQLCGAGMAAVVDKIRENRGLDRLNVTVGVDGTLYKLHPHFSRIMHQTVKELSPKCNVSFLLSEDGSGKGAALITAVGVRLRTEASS

On to `CC1CCN(S(=O)(=O)c2ccc3nc(N4CCN(c5ccccc5)CC4)ccc3c2)CC1`, for which the EC50 (usually the concentration at which the effect is half-maximal) in experiment [1] is > 100 µM (inactive).

Take `CCc1c(C)c(C#N)c2nc3ccccc3n2c1NC`: the values for the EC50 on Hexokinase HKDC1 and at Hexokinase-1 were 44.8 µM (inactive) and 21.1 µM (inactive), respectively.

For the compound `CN(C)CCCN(C(=O)c1ccc(S(=O)(=O)N2CCCCCC2)cc1)c1nc2ccc(Br)cc2s1`, the results for the IC50 (on Bcl-2-related protein A1; in [2]; in experiment [3]) were > 20 µM (inactive), 13.4 µM (active) and 10.3 µM (active), respectively.

In the case of `COC(=O)c1c(NC(=O)c2ccc([N+](=O)[O-])o2)sc2c1CCN(C(C)C)C2`, the EC50 in experiment [4] is 1.33 µM (active); in [5], 2.12 µM (inconclusive); in [6], 1.88 µM (inconclusive); in experiment [7], 2.23 µM (inconclusive); in experiment [8] it was 2.94 µM (active); in [9], 3.35 µM (active).
